Measurements from patent publication EP3733277B1, “PATTERNED SUBSTRATE HAVING HYDROPHILIC AND HYDROPHOBIC AREAS” (Karlsruher Institut für Technologie (KIT), priority 2019, dated 2020).
pIC50: −log10 of the molar value.

System: Jurkat cells
Test: Dose-response of doxorubicin on Jurkat cells cultured on droplet microarrays (DMA) with different surfaces or in microtiter plates; viability by Calcein AM / Propidium Iodide staining
Format: cell-based
Settings: Homo sapiens
Procedure: Jurkat cells were treated with anti-cancer drug doxorubicin on DMAs containing different surfaces and coatings ((1) non-polymer surface with gelatine coating, (2) non-polymer surface without coating, (3) polymer surface with gelatine coating, which is necessary for culturing of cells on polymer, but not on non-polymer surface). Cells were cultured in 100 nL droplets volume and 100 cells per droplet on 1 mm square hydrophilic spots. Cells were incubated with drug for 24 hours. Afterwards cells were stained with Calcein AM (stains live cells) and Propidium Iodide (stains dead cells) to estimate viability of cells. DMAs were imaged using Olympus IX microscope. Image analysis was performed in Imaged software.
IC50 values were calculated in Origin software by fitting the dose-response curves shown in (a).

## COc1cccc2c1C(=O)c1c(O)c3c(c(O)c1C2=O)C[C@@](O)(C(=O)CO)C[C@@H]3O[C@H]1C[C@H](N)[C@H](O)[C@H](C)O1 [doxorubicin]
24 h, Surface: Non-polymer DMA (without coating), 100 nL droplets, 100 cells per droplet, 24 hours
  pIC50: 6.72
24 h, Surface: Non-polymer DMA / gelatin, 100 nL droplets, 100 cells per droplet, 24 hours
  pIC50: 4.45
24 h, Surface: Polymer DMA / gelatin (HEMA-EDMA polymer), 100 nL droplets, 100 cells per droplet, 24 hours
  pIC50: 3.69
Surface: Microtiter plate
  pIC50: 6.70
